{"source": "paper PMC12838199", "about": "“A highly conserved ABC transporter mediates cello-oligosaccharide uptake in the extremely thermophilic, lignocellulolytic bacterium Anaerocellum bescii (f. Caldicellulosiruptor bescii)” (Applied and Environmental Microbiology, 2025)", "type_in_all_cases": "binding", "key": {"[1]": {"biological_target": "T1, Athe_0598 (Caldicellulosiruptor bescii, UniProt A0ABY1SBM3)", "T1 construct": "gene SAMN05216240_2512; IMAC purified after 68 °C heat treatment", "T1 sequence (A0ABY1SBM3 entry or part of it)": "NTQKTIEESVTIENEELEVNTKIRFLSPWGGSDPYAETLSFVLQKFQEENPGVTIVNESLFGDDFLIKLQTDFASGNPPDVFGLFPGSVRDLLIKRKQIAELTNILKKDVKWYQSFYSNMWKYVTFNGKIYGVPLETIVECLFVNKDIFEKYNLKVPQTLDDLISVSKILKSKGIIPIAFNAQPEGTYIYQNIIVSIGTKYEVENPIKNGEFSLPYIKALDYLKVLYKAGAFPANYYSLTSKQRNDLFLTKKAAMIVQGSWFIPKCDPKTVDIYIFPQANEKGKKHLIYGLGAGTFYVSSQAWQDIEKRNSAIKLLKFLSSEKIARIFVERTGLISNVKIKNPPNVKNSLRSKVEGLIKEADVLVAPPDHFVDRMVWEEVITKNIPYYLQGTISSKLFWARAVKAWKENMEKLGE", "assay": "isothermal titration calorimetry", "conditions": "25 °C; 50 mM HEPES, 300 mM NaCl, pH 7.0 (storage and characterization buffer); single-site model", "from_the_text": "isothermal titration calorimetry on Athe_0598"}, "[2]": {"biological_target": "T1, Athe_0598", "assay": "differential scanning calorimetry", "conditions": "5 mM sugar, 2 mg/mL protein, 50 mM HEPES, 300 mM NaCl, pH 7.0; 4 °C/min", "from_the_text": "differential scanning calorimetry on Athe_0598"}, "[3]": {"biological_target": "T2, Athe_0597 (Caldicellulosiruptor bescii, UniProt A0ABY1SBW7)", "T2 construct": "gene SAMN05216240_2513; IMAC purified after 68 °C heat treatment", "T2 sequence (A0ABY1SBW7 entry or part of it)": "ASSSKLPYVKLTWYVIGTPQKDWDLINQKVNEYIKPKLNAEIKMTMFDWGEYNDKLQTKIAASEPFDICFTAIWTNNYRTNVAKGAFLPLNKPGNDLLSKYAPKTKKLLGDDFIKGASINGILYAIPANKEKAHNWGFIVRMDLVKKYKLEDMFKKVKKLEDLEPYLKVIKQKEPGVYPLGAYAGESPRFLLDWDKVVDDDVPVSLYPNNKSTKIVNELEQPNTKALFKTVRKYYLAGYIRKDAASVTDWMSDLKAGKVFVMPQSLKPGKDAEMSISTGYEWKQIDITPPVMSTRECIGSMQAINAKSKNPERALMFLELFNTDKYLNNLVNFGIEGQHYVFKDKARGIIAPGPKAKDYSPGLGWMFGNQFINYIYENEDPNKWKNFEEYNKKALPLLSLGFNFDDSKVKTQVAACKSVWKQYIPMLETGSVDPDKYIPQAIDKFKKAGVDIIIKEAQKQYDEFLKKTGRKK", "assay": "differential scanning calorimetry", "conditions": "5 mM sugar, 2 mg/mL protein, 50 mM HEPES, 300 mM NaCl, pH 7.0; 4 °C/min", "from_the_text": "differential scanning calorimetry on Athe_0597"}, "[4]": {"biological_target": "T2, Athe_0597", "assay": "isothermal titration calorimetry", "conditions": "25 °C; 50 mM HEPES, 300 mM NaCl, pH 7.0 (storage and characterization buffer); single-site model", "from_the_text": "isothermal titration calorimetry on Athe_0597"}}}
{"smiles": "OC[C@H]1O[C@@H](O[C@H]2[C@H](O)[C@@H](O)C(O)O[C@@H]2CO)[C@H](O)[C@@H](O)[C@@H]1O", "note": "(stereo partly shown) [G2, cellobiose]", "values": [{"measurement": "Kd", "setting": "[1]", "result": "2.84 ± 0.36", "unit": "µM"}, {"measurement": "ΔTm (°C)", "setting": "[2]", "result": 8.53, "unit": "°C"}, {"measurement": "ΔTm (°C)", "setting": "[3]", "result": 7.57, "unit": "°C"}, {"measurement": "Kd", "setting": "[4]", "result": "0.228 ± 0.1", "unit": "µM"}]}
{"smiles": "OC[C@H]1O[C@@H](O[C@H]2[C@H](O)[C@@H](O)[C@H](O[C@H]3[C@H](O)[C@@H](O)[C@H](O[C@H]4[C@H](O)[C@@H](O)C(O)O[C@@H]4CO)O[C@@H]3CO)O[C@@H]2CO)[C@H](O)[C@@H](O)[C@@H]1O", "note": "(stereo partly shown) [G4, cellotetraose]", "values": [{"measurement": "ΔTm (°C)", "setting": "[3]", "result": 9.30, "unit": "°C"}, {"measurement": "Kd", "setting": "[4]", "result": "1.97 ± 0.52", "unit": "µM"}]}
{"smiles": "OC[C@H]1O[C@@H](O[C@H]2[C@H](O)[C@@H](O)[C@H](O[C@H]3[C@H](O)[C@@H](O)[C@H](O[C@H]4[C@H](O)[C@@H](O)[C@H](O[C@H]5[C@H](O)[C@@H](O)C(O)O[C@@H]5CO)O[C@@H]4CO)O[C@@H]3CO)O[C@@H]2CO)[C@H](O)[C@@H](O)[C@@H]1O", "note": "(stereo partly shown) [G5, cellopentaose]", "values": [{"measurement": "ΔTm (°C)", "setting": "[3]", "result": 8.72, "unit": "°C"}, {"measurement": "Kd", "setting": "[4]", "result": "1.18 ± 0.12", "unit": "µM"}]}
{"smiles": "OC[C@H]1O[C@@H](O[C@H]2[C@H](O)[C@@H](O)[C@H](O[C@H]3[C@H](O)[C@@H](O)C(O)O[C@@H]3CO)O[C@@H]2CO)[C@H](O)[C@@H](O)[C@@H]1O", "note": "(stereo partly shown) [G3, cellotriose]", "values": [{"measurement": "ΔTm (°C)", "setting": "[3]", "result": 6.89, "unit": "°C"}, {"measurement": "Kd", "setting": "[4]", "result": "0.942 ± 0.12", "unit": "µM"}]}
